Data taken from US10259818B2, “Bicyclic azaheterocyclobenzylamines as PI3K inhibitors” (Incyte Corporation, priority 2012, dated 2019).

molecular target: PI3Kδ (Homo sapiens (Human), UniProt O00329); assay: PI3K enzyme assay, [γ-33P]ATP filter plate (Example A2); type: biochemical; conditions: Assay A2 (filter plate, 1000 μM ATP)
Protocol: Example A2: PI3K Enzyme Assay
Lipid kinase substrate, phosphoinositol-4,5-bisphosphate (PIP2), are purchased from Echelon Biosciences (Salt Lake City, Utah). PI3K isoforms α, β, δ and γ are purchased from Millipore (Bedford, Mass.). ATP, MgCl2, DTT, EDTA, MOPS and CHAPS are purchased from Sigma-Aldrich (St. Louis, Mo.).
The kinase reaction are conducted in clear-bottom 96-well plate from Thermo Fisher Scientific in a final volume of 24 μL. Inhibitors are first diluted serially in DMSO and added to the plate wells before the addition of other reaction components. The final concentration of DMSO in the assay is 0.5%. The PI3K assays are carried out at room temperature in 20 mM MOPS, pH 6.7, 10 mM MgCl2, 5 mM DTT and CHAPS 0.03%. The reaction mixture is prepared containing 50 μM PIP2, kinase and varying concentration of inhibitors. Reactions are initiated by the addition of ATP containing 2.2 μCi [γ-^33P]ATP to a final concentration of 1000 μM. The final concentration of PI3K isoforms α, β, δ and γ in the assay were 1.3, 9.4, 2.9 and 10.8 nM, respectively. Reactions are incubated for 180 minutes and terminated by the addition of 100 μL of 1 M potassium phosphate pH 8.0, 30 mM EDTA quench buffer. A 100 μL aliquot of the reaction solution are then transferred to 96-well Millipore MultiScreen IP […] PVDF filter plate (The filter plate is prewetted with 200 μL 100% ethanol, distilled water, and 1 M potassium phosphate pH 8.0, respectively). The filter plate is aspirated on a Millipore Manifold under vacuum and washed with 18×200 μL wash buffer containing 1 M potassium phosphate pH 8.0 and 1 mM ATP. After drying by aspiration and blotting, the plate is air dried in an incubator at 37° C. overnight. Packard TopCount adapter (Millipore) is then attached to the plate followed with addition of 120 μL Microscint 20 scintillation cocktail (Perkin Elmer) in each well. After the plate sealing, the radioactivity of the product is determined by scintillation counting on Topcount (Perkin-Elmer). IC50 determination is performed by fitting the curve of percent control activity versus the log of the inhibitor concentration using the GraphPad Prism 3.0 software.

Sequence of PI3Kδ (O00329 whole entry): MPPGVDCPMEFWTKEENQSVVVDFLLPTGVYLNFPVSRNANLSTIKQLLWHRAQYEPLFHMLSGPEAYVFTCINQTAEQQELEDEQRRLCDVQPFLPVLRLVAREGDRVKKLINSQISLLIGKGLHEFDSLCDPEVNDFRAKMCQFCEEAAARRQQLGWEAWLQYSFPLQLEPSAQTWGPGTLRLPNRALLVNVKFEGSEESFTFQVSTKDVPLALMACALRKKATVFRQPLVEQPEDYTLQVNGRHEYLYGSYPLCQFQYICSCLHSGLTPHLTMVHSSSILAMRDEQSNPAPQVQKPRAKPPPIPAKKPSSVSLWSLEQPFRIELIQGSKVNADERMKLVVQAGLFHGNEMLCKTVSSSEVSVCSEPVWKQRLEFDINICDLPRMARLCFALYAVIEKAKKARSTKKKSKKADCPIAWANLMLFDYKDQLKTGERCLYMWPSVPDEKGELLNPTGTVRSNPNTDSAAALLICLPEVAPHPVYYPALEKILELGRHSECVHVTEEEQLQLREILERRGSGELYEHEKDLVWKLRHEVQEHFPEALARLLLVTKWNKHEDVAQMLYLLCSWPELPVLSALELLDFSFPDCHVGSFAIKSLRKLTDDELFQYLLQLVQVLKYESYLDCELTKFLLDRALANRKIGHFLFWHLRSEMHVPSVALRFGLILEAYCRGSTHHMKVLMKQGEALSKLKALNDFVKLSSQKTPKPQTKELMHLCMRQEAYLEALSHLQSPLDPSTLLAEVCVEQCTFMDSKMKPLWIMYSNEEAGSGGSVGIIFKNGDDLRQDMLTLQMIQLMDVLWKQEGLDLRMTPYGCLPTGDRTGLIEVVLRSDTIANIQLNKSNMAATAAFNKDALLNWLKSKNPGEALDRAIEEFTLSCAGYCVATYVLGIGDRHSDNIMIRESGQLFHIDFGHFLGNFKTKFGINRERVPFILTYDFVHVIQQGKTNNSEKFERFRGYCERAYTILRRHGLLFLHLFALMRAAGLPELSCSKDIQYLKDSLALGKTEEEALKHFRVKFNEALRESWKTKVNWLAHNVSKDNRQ
Sequence of PI3Kδ (P27986 whole entry partner): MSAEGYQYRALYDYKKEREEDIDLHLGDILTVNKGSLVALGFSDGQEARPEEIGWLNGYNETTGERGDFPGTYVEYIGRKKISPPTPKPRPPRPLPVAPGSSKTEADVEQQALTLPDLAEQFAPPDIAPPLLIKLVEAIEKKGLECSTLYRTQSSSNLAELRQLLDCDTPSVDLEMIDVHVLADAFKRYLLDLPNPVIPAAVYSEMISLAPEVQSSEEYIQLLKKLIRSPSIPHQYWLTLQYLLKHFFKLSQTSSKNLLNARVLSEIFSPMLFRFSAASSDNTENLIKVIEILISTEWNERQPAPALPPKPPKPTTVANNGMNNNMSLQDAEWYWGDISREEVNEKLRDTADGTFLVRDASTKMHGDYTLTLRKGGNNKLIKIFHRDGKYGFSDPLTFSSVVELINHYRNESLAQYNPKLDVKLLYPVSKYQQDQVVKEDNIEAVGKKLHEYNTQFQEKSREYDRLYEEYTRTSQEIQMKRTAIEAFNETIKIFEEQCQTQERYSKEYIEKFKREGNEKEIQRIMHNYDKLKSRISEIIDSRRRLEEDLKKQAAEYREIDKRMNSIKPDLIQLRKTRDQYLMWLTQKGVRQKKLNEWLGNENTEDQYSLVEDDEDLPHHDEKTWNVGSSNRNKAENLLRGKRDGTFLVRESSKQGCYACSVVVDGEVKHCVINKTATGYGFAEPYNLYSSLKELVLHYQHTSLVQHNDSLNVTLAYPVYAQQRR

| IC50 [nM] | SMILES |
| --- | --- |
| ≤ 100 | Cc1nn(C(C)c2cc(Cl)c(F)c3c2OC(C)CN(C2CN(C(=O)OC(C)(C)C)C2)C3)c2ncnc(N)c12 (single isomer, unassigned) [Example 27, tert-Butyl 3-[9-[1-(4-amino-3-methyl-1H-pyrazolo[3,4-d]pyrimidin-1-yl)ethyl]-7-chloro-6-fluoro-2-methyl-2,3-dihydro-1,4-benzoxazepin-4(5H)-yl]azetidine-1-carboxylate] |
| ≤ 100 | COC(=O)N1CC(N2Cc3c(F)c(Cl)cc(C(C)n4nc(C)c5c(N)ncnc54)c3OC(C)C2)C1 (single isomer, unassigned) [Example 79, methyl 3-[9-[1-(4-amino-3-methyl-1H-pyrazolo[3,4-d]pyrimidin-1-yl)ethyl]-7-chloro-6-fluoro-2-methyl-2,3-dihydro-1,4-benzoxazepin-4(5H)-yl]azetidine-1-carboxylate] |
| ≤ 100 | Cc1nn(C(C)c2cc(Cl)c(F)c3c2OCCCN(S(C)(=O)=O)C3)c2ncnc(N)c12 (stereo not shown) [Example 45, 1-{1-[8-Chloro-7-fluoro-5-(methylsulfonyl)-3,4,5,6-tetrahydro-2H-1,5-benzoxazocin-10-yl]ethyl}-3-methyl-1H-pyrazolo[3,4-d]pyrimidin-4-amine] |
| ≤ 100 | CCC(=O)N1CC(N2Cc3c(C#N)c(Cl)cc(C(C)n4nc(C)c5c(N)ncnc54)c3OC(C)C2)C1 (stereo not shown) [Example 96, 9-[1-(4-amino-3-methyl-1H-pyrazolo[3,4-d]pyrimidin-1-yl)ethyl]-7-chloro-2-methyl-4-(1-propionylazetidin-3-yl)-2,3,4,5-tetrahydro-1,4-benzoxazepine-6-carbonitrile] |

test system: SUDHL-6 cell line (diffuse large B cell lymphoma); assay: SUDHL-6 cell proliferation assay (Example B3); type: cell-based; conditions: Homo sapiens, SU-DHL-6, 72 h, SUDHL-6 cells, 3 days, Cell Titer-GLO
In short: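 Cells in RPMI/10% FBS, 5000 per well, exposed to a concentration range of test compound for 3 days. Viability read as ATP content by CellTiter-Glo luminescence after 10 min at room temperature; IC50 derived from the luminescence.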

| SMILES | IC50 [nM] |
| --- | --- |
| CC(=O)N1CC(N2Cc3c(F)c(Cl)cc(C(C)n4nc(C)c5c(N)ncnc54)c3OC(C)C2=O)C1 (stereo not shown) [Example 71, 4-(1-Acetylazetidin-3-yl)-9-[1-(4-amino-3-methyl-1H-pyrazolo[3,4-d]pyrimidin-1-yl)ethyl]-7-chloro-6-fluoro-2-methyl-4,5-dihydro-1,4-benzoxazepin-3(2H)-one] | 500 to 1000 |
| Cc1nn(C(C)c2cc(Cl)c(F)c3c2OCCN(C2CN(S(=O)(=O)N(C)C)C2)C3)c2ncnc(N)c12 (stereo not shown) [Example 74, 3-[9-[1-(4-amino-3-methyl-1H-pyrazolo[3,4-d]pyrimidin-1-yl)ethyl]-7-chloro-6-fluoro-2,3-dihydro-1,4-benzoxazepin-4(5H)-yl]-N,N-dimethylazetidine-1-sulfonamide] | 500 to 1000 |
| Cc1nn(C(C)c2cc(Cl)c(F)c3c2OC(C)CN(C2CN(S(C)(=O)=O)C2)C3)c2ncnc(N)c12 (stereo not shown) [Example 75, 1-(1-{7-chloro-6-fluoro-2-methyl-4-[1-(methylsulfonyl)azetidin-3-yl]-2,3,4,5-tetrahydro-1,4-benzoxazepin-9-yl}ethyl)-3-methyl-1H-pyrazolo[3,4-d]pyrimidin-4-amine] | ≤ 500 |
| Cc1nn([C@@H](C)c2cc(Cl)c(F)c3c2O[C@@H](C)CN(C2CN(C[C@@H](C)O)C2)C3)c2ncnc(N)c12 [Example 86, (2R)-1-{3-[(2S)-9-[(1S)-1-(4-amino-3-methyl-1H-pyrazolo[3,4-d]pyrimidin-1-yl)ethyl]-7-chloro-6-fluoro-2-methyl-2,3-dihydro-1,4-benzoxazepin-4(5H)-yl]azetidin-1-yl}propan-2-ol] | ≤ 500 |
| CCC(=O)N1CC(N2CCOc3c(C(C)n4nc(C)c5c(N)ncnc54)cc(Cl)c(C#N)c3C2)C1 (stereo not shown) [Example 89, 9-[1-(4-amino-3-methyl-1H-pyrazolo[3,4-d]pyrimidin-1-yl)ethyl]-7-chloro-4-(1-propionylazetidin-3-yl)-2,3,4,5-tetrahydro-1,4-benzoxazepine-6-carbonitrile] | ≤ 500 |
| Cc1nn(C(C)c2cc(Cl)c(C#N)c3c2OCCN(C2CN(S(C)(=O)=O)C2)C3)c2ncnc(N)c12 (stereo not shown) [Example 90, 9-[1-(4-amino-3-methyl-1H-pyrazolo[3,4-d]pyrimidin-1-yl)ethyl]-7-chloro-4-[1-(methylsulfonyl)azetidin-3-yl]-2,3,4,5-tetrahydro-1,4-benzoxazepine-6-carbonitrile] | ≤ 500 |
| Cc1nn(C(C)c2cc(Cl)c(C#N)c3c2OCCN(C2CN(C(=O)NC(C)C)C2)C3)c2ncnc(N)c12 (stereo not shown) [Example 91, 3-[9-[1-(4-amino-3-methyl-1H-pyrazolo[3,4-d]pyrimidin-1-yl)ethyl]-7-chloro-6-cyano-2,3-dihydro-1,4-benzoxazepin-4(5H)-yl]-N-isopropylazetidine-1-carboxamide] | ≤ 500 |

Further lines, results first:

| IC50 [nM] | SMILES |
| --- | --- |
| ≤ 500 | Cc1nn(C(C)c2cc(Cl)c(F)c3c2OCCCN(S(C)(=O)=O)C3)c2ncnc(N)c12 (stereo not shown) [Example 45, 1-{1-[8-Chloro-7-fluoro-5-(methylsulfonyl)-3,4,5,6-tetrahydro-2H-1,5-benzoxazocin-10-yl]ethyl}-3-methyl-1H-pyrazolo[3,4-d]pyrimidin-4-amine] |
| ≤ 500 | Cc1nn(C(C)c2cc(Cl)c(C#N)c3c2OCCN(CCO)C3)c2ncnc(N)c12 (stereo not shown) [Example 58, 9-[1-(4-Amino-3-methyl-1H-pyrazolo[3,4-d]pyrimidin-1-yl)ethyl]-7-chloro-4-(2-hydroxyethyl)-2,3,4,5-tetrahydro-1,4-benzoxazepine-6-carbonitrile] |
| ≤ 500 | Cc1nn(C(C)c2cc(Cl)c(F)c3c2OCCN(C2CN(C(=O)N(C)C)C2)C3)c2ncnc(N)c12 (stereo not shown) [Example 73, 3-[9-[1-(4-amino-3-methyl-1H-pyrazolo[3,4-d]pyrimidin-1-yl)ethyl]-7-chloro-6-fluoro-2,3-dihydro-1,4-benzoxazepin-4(5H)-yl]-N,N-dimethylazetidine-1-carboxamide] |
| ≤ 500 | CCC(=O)N1CC(N2Cc3c(F)c(Cl)cc(C(C)n4nc(C)c5c(N)ncnc54)c3OC(C)C2)C1 (stereo not shown) [Example 76, 1-{1-[7-chloro-6-fluoro-2-methyl-4-(1-propionylazetidin-3-yl)-2,3,4,5-tetrahydro-1,4-benzoxazepin-9-yl]ethyl}-3-methyl-1H-pyrazolo[3,4-d]pyrimidin-4-amine] |
| ≤ 500 | Cc1nn([C@@H](C)c2cc(Cl)c(F)c3c2O[C@@H](C)CN(C2CN(C[C@H](C)O)C2)C3)c2ncnc(N)c12 [Example 85, (2S)-1-{3-[(2S)-9-[(1S)-1-(4-amino-3-methyl-1H-pyrazolo[3,4-d]pyrimidin-1-yl)ethyl]-7-chloro-6-fluoro-2-methyl-2,3-dihydro-1,4-benzoxazepin-4(5H)-yl]azetidin-1-yl}propan-2-ol] |
| ≤ 500 | CCOC(=O)N1CC(N2CCOc3c(C(C)n4nc(C)c5c(N)ncnc54)cc(Cl)c(C#N)c3C2)C1 (stereo not shown) [Example 92, ethyl 3-[9-[1-(4-amino-3-methyl-1H-pyrazolo[3,4-d]pyrimidin-1-yl)ethyl]-7-chloro-6-cyano-2,3-dihydro-1,4-benzoxazepin-4(5H)-yl]azetidine-1-carboxylate] |
| ≤ 500 | CCC(=O)N1CC(N2Cc3c(C#N)c(Cl)cc(C(C)n4nc(C)c5c(N)ncnc54)c3OC(C)C2)C1 (stereo not shown) [Example 96, 9-[1-(4-amino-3-methyl-1H-pyrazolo[3,4-d]pyrimidin-1-yl)ethyl]-7-chloro-2-methyl-4-(1-propionylazetidin-3-yl)-2,3,4,5-tetrahydro-1,4-benzoxazepine-6-carbonitrile] |

same assay, conditions: SUDHL-6 cells, 3 days, Cell Titer-GLO

| IC50 [nM] | SMILES |
| --- | --- |
| ≤ 500 | Cc1nn(C(C)c2cc(Cl)c(F)c3c2OC(C)CN(C2CN(C(=O)OC(C)(C)C)C2)C3)c2ncnc(N)c12 (single isomer, unassigned) [Example 27, tert-Butyl 3-[9-[1-(4-amino-3-methyl-1H-pyrazolo[3,4-d]pyrimidin-1-yl)ethyl]-7-chloro-6-fluoro-2-methyl-2,3-dihydro-1,4-benzoxazepin-4(5H)-yl]azetidine-1-carboxylate] |
